Assay results taken from paper PMC9146426, “3,6′- and 1,6′-Dithiopomalidomide Mitigate Ischemic Stroke in Rats and Blunt Inflammation” (Pharmaceutics, 2022).

Target: T1, cereblon (Homo sapiens, UniProt Q96SW2)
T1 construct: gene CRBN; cereblon/DDB1-CUL4A-Rbx1 complex; with DDB1-CUL4A-Rbx1
Experiment: AlphaScreen bead-based cereblon binding assay (BPS Bioscience #[…]) with BRD3

T1 sequence (Q96SW2 whole entry): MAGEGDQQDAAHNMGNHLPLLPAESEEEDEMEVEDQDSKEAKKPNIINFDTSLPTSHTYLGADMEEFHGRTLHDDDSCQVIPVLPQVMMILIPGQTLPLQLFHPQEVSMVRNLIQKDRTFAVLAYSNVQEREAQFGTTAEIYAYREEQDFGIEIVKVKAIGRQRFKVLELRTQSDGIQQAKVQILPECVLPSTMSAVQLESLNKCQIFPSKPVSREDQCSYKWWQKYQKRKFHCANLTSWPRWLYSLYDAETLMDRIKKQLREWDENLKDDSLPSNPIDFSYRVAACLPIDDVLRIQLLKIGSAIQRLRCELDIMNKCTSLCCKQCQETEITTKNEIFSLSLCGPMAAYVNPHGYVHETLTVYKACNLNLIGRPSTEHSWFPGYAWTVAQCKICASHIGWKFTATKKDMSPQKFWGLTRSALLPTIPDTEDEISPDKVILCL
T1 sequence (Q16531 2-1140 partner): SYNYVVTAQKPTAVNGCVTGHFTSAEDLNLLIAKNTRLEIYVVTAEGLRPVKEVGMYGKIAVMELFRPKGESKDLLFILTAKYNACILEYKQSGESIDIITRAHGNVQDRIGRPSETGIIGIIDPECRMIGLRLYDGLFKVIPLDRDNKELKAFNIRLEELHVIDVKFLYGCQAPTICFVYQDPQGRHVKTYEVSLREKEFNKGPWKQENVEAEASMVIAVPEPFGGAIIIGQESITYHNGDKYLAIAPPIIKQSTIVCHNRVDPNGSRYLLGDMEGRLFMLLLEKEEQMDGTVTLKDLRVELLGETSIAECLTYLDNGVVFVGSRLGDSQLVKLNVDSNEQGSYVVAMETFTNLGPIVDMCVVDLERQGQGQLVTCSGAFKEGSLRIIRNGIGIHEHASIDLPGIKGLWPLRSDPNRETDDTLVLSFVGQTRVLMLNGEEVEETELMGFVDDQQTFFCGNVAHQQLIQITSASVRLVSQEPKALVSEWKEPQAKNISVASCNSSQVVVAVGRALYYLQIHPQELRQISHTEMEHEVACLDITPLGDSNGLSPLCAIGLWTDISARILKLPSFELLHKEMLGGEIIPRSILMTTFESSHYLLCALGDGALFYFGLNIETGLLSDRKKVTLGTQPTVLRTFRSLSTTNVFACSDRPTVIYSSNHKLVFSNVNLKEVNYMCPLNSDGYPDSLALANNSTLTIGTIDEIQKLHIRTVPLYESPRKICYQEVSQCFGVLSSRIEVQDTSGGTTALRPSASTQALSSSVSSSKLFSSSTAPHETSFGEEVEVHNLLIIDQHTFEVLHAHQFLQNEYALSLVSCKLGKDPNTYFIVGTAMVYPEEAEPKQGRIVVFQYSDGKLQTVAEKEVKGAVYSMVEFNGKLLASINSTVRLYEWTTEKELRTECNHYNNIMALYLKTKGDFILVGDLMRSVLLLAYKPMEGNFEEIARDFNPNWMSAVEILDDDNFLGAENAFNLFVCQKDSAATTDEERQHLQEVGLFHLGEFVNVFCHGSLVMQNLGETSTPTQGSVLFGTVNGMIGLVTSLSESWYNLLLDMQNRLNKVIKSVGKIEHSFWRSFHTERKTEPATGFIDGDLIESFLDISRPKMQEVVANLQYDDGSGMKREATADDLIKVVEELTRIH
T1 sequence (Q13619 whole entry partner): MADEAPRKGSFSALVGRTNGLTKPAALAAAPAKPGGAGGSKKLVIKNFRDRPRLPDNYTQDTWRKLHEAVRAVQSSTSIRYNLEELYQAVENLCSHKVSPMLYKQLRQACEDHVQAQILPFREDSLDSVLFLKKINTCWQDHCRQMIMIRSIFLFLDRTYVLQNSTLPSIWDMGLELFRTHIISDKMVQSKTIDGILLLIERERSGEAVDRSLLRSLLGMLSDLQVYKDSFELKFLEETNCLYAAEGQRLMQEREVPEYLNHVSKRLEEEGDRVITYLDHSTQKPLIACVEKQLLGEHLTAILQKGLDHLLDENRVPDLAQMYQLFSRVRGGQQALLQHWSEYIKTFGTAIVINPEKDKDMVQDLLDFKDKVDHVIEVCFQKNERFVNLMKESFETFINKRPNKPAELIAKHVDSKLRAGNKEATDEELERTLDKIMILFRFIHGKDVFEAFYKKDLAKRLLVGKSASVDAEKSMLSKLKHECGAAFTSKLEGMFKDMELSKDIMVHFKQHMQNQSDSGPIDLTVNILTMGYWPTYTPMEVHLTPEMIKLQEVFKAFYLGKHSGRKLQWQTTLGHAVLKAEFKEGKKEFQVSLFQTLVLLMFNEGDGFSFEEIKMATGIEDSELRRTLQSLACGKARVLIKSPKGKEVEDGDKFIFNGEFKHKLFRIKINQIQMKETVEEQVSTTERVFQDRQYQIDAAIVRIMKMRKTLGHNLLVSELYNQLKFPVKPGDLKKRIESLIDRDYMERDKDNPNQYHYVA
T1 sequence (P62877 whole entry partner): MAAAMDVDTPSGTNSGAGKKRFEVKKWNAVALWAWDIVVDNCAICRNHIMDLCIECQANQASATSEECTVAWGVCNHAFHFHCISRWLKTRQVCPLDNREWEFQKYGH

SMILES | IC50 [nM]
Nc1cccc2c1C(=S)N(C1CCC(=S)NC1=O)C2=O (centres unmarked) [3,6′-DP, 3,6′-dithiopomalidomide] | 940
Nc1cccc2c1C(=O)N(C1CCC(=S)NC1=O)C2=S (centres unmarked) [1,6′-DP, 1,6′-dithiopomalidomide] | 1520
